PMC5428020 (Chemical Science, 2017)

Experiment: Water solubility as observed during handling, NMR and crystallization
Type: physicochemical

For Fmoc–Q^SO3H–OH [Compound 14], which “solubility in water (in words)” value is on record?
Its value is “surprisingly high”.
